From patent US9108957B2 (MITSUBISHI TANABE PHARMA CORPORATION, priority 2009, dated 2015)

target: human recombinant TPK1 (Homo sapiens, UniProt P49841); test: Inhibitory activity against P-GS1 phosphorylation by TPK1 (Kinase Glo luminescence); type: biochemical; conditions: 7.5 μM P-GS1, 10 μM ATP, 25° C. for 16 hours, Kinase Glo Reagent luminescent signal
Experimental: Inhibitory Activity of the Medicament of the Present Invention Against P-GS1 Phosphorylation by Bovine Cerebral TPK1
A mixture containing 100 mM HEPES-sodium hydroxide (pH 7.2), 1 mM magnesium acetate, 1 mM EGTA, 1 mM dithiothreitol (DTT), 0.02% Tween 20, 7.5 μM P-GS1, 10 μM ATP, human recombinant TPK1 and a compound shown in Table (a final mixture contained 1% DMSO deriving from a solution of a test compound prepared in the presence of 10% DMSO) was used as a reaction system. The phosphorylation was started by adding ATP, and the reaction was conducted at 25° C. for 16 hours. Then equal volume of Kinase Glo Reagent (Promega) was added to the mixture and luminescent signal from the mixture was measured. IC50 for each compound was calculated by setting the data of mixture without enzyme as 0% activity and that without compound as 100% activity.

Sequence of human recombinant TPK1 (P49841 whole entry): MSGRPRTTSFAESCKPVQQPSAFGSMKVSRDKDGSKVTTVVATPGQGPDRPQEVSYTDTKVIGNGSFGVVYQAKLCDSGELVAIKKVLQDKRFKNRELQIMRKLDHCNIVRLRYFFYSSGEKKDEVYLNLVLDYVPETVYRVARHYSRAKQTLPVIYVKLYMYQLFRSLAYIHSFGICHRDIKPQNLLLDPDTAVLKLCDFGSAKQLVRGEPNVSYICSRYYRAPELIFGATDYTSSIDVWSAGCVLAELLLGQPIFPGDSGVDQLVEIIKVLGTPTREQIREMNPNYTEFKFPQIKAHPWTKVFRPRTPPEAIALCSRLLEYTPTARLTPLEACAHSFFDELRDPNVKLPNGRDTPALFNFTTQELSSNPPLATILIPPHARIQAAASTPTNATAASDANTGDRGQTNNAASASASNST

| IC50 | Compound |
| --- | --- |
| 31.9 nM | Cn1c(N2CCCO[C@@H](c3cccc(C#N)c3)C2)nc(-c2ccncn2)cc1=O [Compound A039, (S)-2-[2-(3-cyanophenyl)-1,4-oxazepan-4-yl]-3-methyl-6-(pyrimidin-4-yl)pyrimidin-4(3H)-one] |
| 32.7 nM | Cn1c(N2CCCOC(c3ccccc3)C2)nc(-c2ccncc2)cc1=O (stereo not drawn) [Compound A040, 2-(2-phenyl-1,4-oxazepan-4-yl)-3-methyl-6-(pyridin-4-yl)pyrimidin-4(3H)-one] |
| 34.8 nM | CC1CN(c2nc(-c3ccncc3F)cc(=O)n2C)CCCO1 (stereo not drawn) [Compound A041, 2-(2-methyl-1,4-oxazepan-4-yl)-6-(3-fluoropyridin-4-yl)-3-methylpyrimidin-4(3H)-one] |
| 44.6 nM | Cc1nc(-c2cccc([C@H]3CN(c4nc(-c5ccncc5)cc(=O)n4C)CCCO3)c2)no1 [Compound A042, (S)-2-[2-[3-(5-methyl-1,2,4-oxadiazol-3-yl)-phenyl]-1,4-oxazepan-4-yl]-3-methyl-6-(pyridin-4-yl)pyrimidin-4(3H)-one] |
| 51 nM | Cn1c(N2CCCO[C@H](c3cccc(Br)c3)C2)nc(-c2ccncn2)cc1=O [Compound A043, (R)-2-[2-(3-bromophenyl)-1,4-oxazepan-4-yl]-3-methyl-6-(pyrimidin-4-yl)pyrimidin-4(3H)-one] |
| 52.4 nM | Cn1c(N2CCCO[C@H](c3ccc(Br)cc3)C2)nc(-c2ccncc2F)cc1=O [Compound A044, (R)-2-[2-(4-bromophenyl)-1,4-oxazepan-4-yl]-6-(3-fluoropyridin-4-yl)-3-methylpyrimidin-4(3H)-one] |
| 57.1 nM | Cc1noc(-c2cccc([C@H]3CN(c4nc(-c5ccncn5)cc(=O)n4C)CCCO3)c2)n1 [Compound A045, (S)-2-[2-[3-(3-methyl-1,2,4-oxadiazol-5-yl)phenyl]-1,4-oxazepan-4-yl]-3-methyl-6-(pyrimidin-4-yl)pyrimidin-4(3H)-one] |
| 61.5 nM | Cn1c(N2CCCO[C@@H](c3cccc(C#N)c3)C2)nc(-c2ccncc2)cc1=O [Compound A046, (S)-2-[2-(3-cyanophenyl)-1,4-oxazepan-4-yl]-3-methyl-6-(pyridin-4-yl)pyrimidin-4(3H)-one] |
| 67.5 nM | Cn1c(N2CCCO[C@H](c3cccc(C#N)c3)C2)nc(-c2ccncc2F)cc1=O [Compound A047] |
| 68.8 nM | Cn1c(N2CCCO[C@H](c3cccc(C(N)=O)c3)C2)nc(-c2ccncc2)cc1=O [Compound A048, (R)-2-[2-(3-aminocarbonylphenyl)-1,4-oxazepan-4-yl]-3-methyl-6-(pyridin-4-yl)pyrimidin-4(3H)-one] |
| 70.6 nM | Cn1c(N2CCCO[C@H](c3cccc(C(N)=O)c3)C2)nc(-c2ccncn2)cc1=O [Compound A049, (R)-2-[2-(3-aminocarbonylphenyl)-1,4-oxazepan-4-yl]-3-methyl-6-(pyrimidin-4-yl)pyrimidin-4(3H)-one] |
| 77.4 nM | Cc1nc(-c2ccc([C@H]3CN(c4nc(-c5ccncc5)cc(=O)n4C)CCCO3)cc2)no1 [Compound A050, (S)-2-[2-[4-(5-methyl-[1,2,4]oxadiazol-3-yl)-phenyl]-1,4-oxazepan-4-yl]-3-methyl-6-(pyridin-4-yl)pyrimidin-4(3H)-one] |
| 80.3 nM | CC1CN(c2nc(-c3ccncn3)cc(=O)n2C)CCCO1 (stereo not drawn) [Compound A051, 2-(2-methyl-1,4-oxazepan-4-yl)-3-methyl-6-(pyrimidin-4-yl)pyrimidin-4(3H)-one] |
| 92.1 nM | Cc1nc(-c2ccc([C@@H]3CN(c4nc(-c5ccncc5F)cc(=O)n4C)CCCO3)cc2)no1 [Compound A052, (R)-2-[2-[4-(5-methyl-1,2,4-oxadiazol-3-yl)-phenyl]-1,4-oxazepan-4-yl]-6-(3-fluoropyridin-4-yl)-3-methylpyrimidin-4(3H)-one] |
| 100 nM | Cc1noc(-c2ccc([C@@H]3CN(c4nc(-c5ccncc5F)cc(=O)n4C)CCCO3)cc2)n1 [Compound A053, (R)-2-[2-[4-(3-methyl-1,2,4-oxadiazol-5-yl)-phenyl]-1,4-oxazepan-4-yl]-6-(3-fluoropyridin-4-yl)-3-methylpyrimidin-4(3H)-one] |
| 111 nM | Cn1c(N2CCCO[C@H](c3ccc(F)cc3)C2)nc(-c2ccncc2F)cc1=O [Compound A054, (R)-2-[2-(4-fluorophenyl)-1,4-oxazepan-4-yl]-6-(3-fluoropyridin-4-yl)-3-methylpyrimidin-4(3H)-one] |
| 164 nM | Cc1nc(-c2cccc([C@@H]3CN(c4nc(-c5ccncc5F)cc(=O)n4C)CCCO3)c2)no1 [Compound A055] |
| 169 nM | Cc1noc(-c2cccc([C@H]3CN(c4nc(-c5ccncc5)cc(=O)n4C)CCCO3)c2)n1 [Compound A056, (S)-2-[2-[3-(3-methyl-1,2,4-oxadiazol-5-yl)-phenyl]-1,4-oxazepan-4-yl]-3-methyl-6-(pyridin-4-yl)pyrimidin-4(3H)-one] |

| IC50 | Compound |
| --- | --- |
| 207 nM | Cn1c(N2CCCO[C@H](c3ccc(F)cc3)C2)nc(-c2ccncc2)cc1=O [Compound A057, (R)-2-(2-(4-fluorophenyl)-1,4-oxazepan-4-yl)-3-methyl-6-(pyridin-4-yl)pyrimidin-4(3H)-one] |
| 221 nM | Cn1c(N2CCCO[C@H](c3ccc(Br)cc3)C2)nc(-c2ccncn2)cc1=O [Compound A058, (R)-2-(2-(4-bromophenyl)-1,4-oxazepan-4-yl)-3-methyl-6-(pyrimidin-4-yl)pyrimidin-4(3H)-one] |
| 241 nM | Cc1noc(-c2cccc([C@@H]3CN(c4nc(-c5ccncc5F)cc(=O)n4C)CCCO3)c2)n1 [Compound A059, (R)-2-[2-[3-(3-methyl-1,2,4-oxadiazol-5-yl)-phenyl]-1,4-oxazepan-4-yl]-6-(3-fluoropyridin-4-yl)-3-methylpyrimidin-4(3H)-one] |
| 252 nM | Cn1c(N2CCCO[C@H](c3ccc(C(N)=O)cc3)C2)nc(-c2ccncn2)cc1=O [Compound A060, (R)-2-[2-(4-aminocarbonylphenyl)-1,4-oxazepan-4-yl]-3-methyl-6-(pyrimidin-4-yl)pyrimidin-4(3H)-one] |
| 446 nM | CC1CN(c2nc(-c3ccncc3)cc(=O)n2C)CCCO1 (stereo not drawn) [Compound A061, 2-(2-methyl-1,4-oxazepan-4-yl)-3-methyl-6-(pyridin-4-yl)pyrimidin-4(3H)-one] |
| 809 nM | Cn1c(N2CCCO[C@H](c3ccc(C(N)=O)cc3)C2)nc(-c2ccncc2)cc1=O [Compound A062, (R)-2-[2-(4-aminocarbonylphenyl)-1,4-oxazepan-4-yl]-3-methyl-6-(pyridin-4-yl)pyrimidin-4(3H)-one] |
| 826 nM | Cn1c(N2CCCO[C@H](c3ccc(C#N)cc3)C2)nc(-c2ccncc2F)cc1=O [Compound A063, (R)-2-[2-(4-cyanophenyl)-1,4-oxazepan-4-yl]-6-(3-fluoropyridin-4-yl)-3-methylpyrimidin-4(3H)-one] |
| 23.2 nM | C[C@@H]1COCCCN1c1nc(-c2ccncn2)cc(=O)n1C [Compound A064, (R)-3-methyl-2-(3-methyl-1,4-oxazepan-4-yl)-6-(pyrimidin-4-yl)pyrimidin-4(3H)-one] |
| 5.5 nM | Cn1c(N2CCOCCC2c2ccccc2)nc(-c2ccncc2F)cc1=O (stereo not drawn) [Compound A066, 6-(3-fluoropyridin-4-yl)-3-methyl-2-(5-phenyl-1,4-oxazepan-4-yl)pyrimidin-4(3H)-one] |
| 9.7 nM | CC1CCOCCN1c1nc(-c2ccncc2F)cc(=O)n1C (stereo not drawn) [Compound A067, 6-(3-fluoropyridin-4-yl)-3-methyl-2-(5-methyl-1,4-oxazepan-4-yl)pyrimidin-4(3H)-one] |
| 17.3 nM | CC1CCOCCN1c1nc(-c2ccncn2)cc(=O)n1C (stereo not drawn) [Compound A070, 3-methyl-2-(5-methyl-1,4-oxazepan-4-yl)-6-(pyrimidin-4-yl)pyrimidin-4(3H)-one] |
| 41 nM | Cn1c(N2CCOCCC2c2ccccc2)nc(-c2ccncn2)cc1=O (stereo not drawn) [Compound A071, 3-methyl-2-(5-phenyl-1,4-oxazepan-4-yl)-6-(pyrimidin-4-yl)pyrimidin-4(3H)-one] |
| 65 nM | CCC1CCOCCN1c1nc(-c2ccncc2F)cc(=O)n1C (stereo not drawn) [Compound A072, 6-(3-fluoropyridin-4-yl)-3-methyl-2-(5-ethyl-1,4-oxazepan-4-yl)pyrimidin-4(3H)-one] |
| 195 nM | CCC1CCOCCN1c1nc(-c2ccncn2)cc(=O)n1C (stereo not drawn) [Compound A073, 3-methyl-2-(5-ethyl-1,4-oxazepan-4-yl)-6-(pyrimidin-4-yl)pyrimidin-4(3H)-one] |
| 1.2 nM | Cn1c(N2CCOC[C@@H](c3ccc(Br)cc3)C2)nc(-c2ccncn2)cc1=O [Compound A074, (S)-2-[6-(4-bromophenyl)-1,4-oxazepan-4-yl]-3-methyl-6-(pyrimidin-4-yl)pyrimidin-4(3H)-one] |
| 3.1 nM | Cn1c(N2CCOC[C@@H](c3ccc(C#N)cc3)C2)nc(-c2ccncn2)cc1=O [Compound A076, (S)-2-[6-(4-cyanoophenyl)-1,4-oxazepan-4-yl]-3-methyl-6-(pyrimidin-4-yl)pyrimidin-4(3H)-one] |
| 5.9 nM | Cc1noc(-c2ccc(C3COCCN(c4nc(-c5ccncc5F)cc(=O)n4C)C3)cc2)n1 (stereo not drawn) [Compound A077, 2-[6-[4-(3-methyl-1,2,4-oxadiazol-5-yl)-phenyl]-1,4-oxazepan-4-yl]-6-(3-fluoropyridin-4-yl)-3-methylpyrimidin-4(3H)-one] |
| 7.1 nM | Cn1c(N2CCOCC(c3ccc(-c4ncon4)cc3)C2)nc(-c2ccncc2F)cc1=O (stereo not drawn) [Compound A078, 2-[6-[4-(1,2,4-oxadiazol-3-yl)-phenyl]-1,4-oxazepan-4-yl]-6-(3-fluoropyridin-4-yl)-3-methylpyrimidin-4(3H)-one] |
